Measured values from patent US20230172204A1 (BASF SE, priority 2020, published 2023).

Assays:
[1] = tested on: Phakopsora pachyrhizi (F129L); experiment: Protective control of soybean rust on soybeans (PHAKPA P6); type: in vivo; settings: soybean rust F129L; for % PHAKPA (F129L) Disease level P6 at 4 ppm: protective P6, 4 ppm; for % PHAKPA (F129L) Disease level P6 at 16 ppm: protective P6, 16 ppm
[2] = tested on: Phakopsora pachyrhizi (F129L); experiment: Protective control of soybean rust on soybeans (PHAKPA P2); type: in vivo; settings: soybean rust F129L; for % PHAKPA (F129L) Disease level P2 at 4 ppm: protective P2, 4 ppm; for % PHAKPA (F129L) Disease level P2 at 16 ppm: protective P2, 16 ppm

SMILES	% PHAKPA (F129L) Disease level P6 at 4 ppm [1]	% PHAKPA (F129L) Disease level P6 at 16 ppm [1]	% PHAKPA (F129L) Disease level P2 at 4 ppm [2]	% PHAKPA (F129L) Disease level P2 at 16 ppm [2]
CNC(=O)/C(=N/OC)c1cccc(C)c1CO/N=C(\C)c1ccc(F)cc1Cl [compound 262]	47%	4%	63%	1%
CO/N=C(/C(=O)OC)c1cccc(C)c1CO/N=C(\C)c1ccc(F)cc1C(F)(F)F [compound 263]	73%	22%	80%	15%
CO/N=C(/C(=O)OC)c1cccc(C)c1CO/N=C(\C)c1ccc(F)cc1F [compound 266]	90%	43%	67%	18%
CNC(=O)/C(=N/OC)c1cccc(C)c1CO/N=C(\C)c1ccc(F)cc1F [compound 267]	10%	4%	2%	0%
CO/N=C(/C(=O)OC)c1cccc(C)c1CO/N=C(\C)c1ccc(OC(F)(F)F)cc1Cl [compound 268]	60%	17%	63%	6%
CO/N=C(/C(=O)OC)c1cccc(C)c1CO/N=C(\C)c1ccc(OC(F)(F)F)cc1F [compound 269]	18%	0%	5%	0%
CNC(=O)/C(=N/OC)c1cccc(C)c1CO/N=C(\C)c1ccc(OC(F)(F)F)cc1F [compound 270]	0%	1%	3%	0%
CNC(=O)/C(=N/OC)c1cccc(C)c1CO/N=C(\C)c1ccccc1COC [compound 277]	100%	100%	100%	60%
CNC(=O)/C(=N/OC)c1cccc(C)c1CO/N=C(\C)c1cc(C)ccc1C [compound 278]	90%	93%	90%	60%
CO/N=C(/C(=O)OC)c1cccc(C)c1CO/N=C(\C)c1c(F)cccc1Cl [compound 283]	87%	22%	83%	30%
CNC(=O)/C(=N/OC)c1cccc(C)c1CO/N=C(\C)c1c(F)cccc1Cl [compound 284]	62%	34%	63%	44%
CO/N=C(/C(=O)OC)c1cccc(C)c1CO/N=C(\C)c1c(C)cccc1F [compound 285]	90%	35%	87%	50%
C#Cc1cc(F)ccc1/C(C)=N/OCc1c(C)cccc1/C(=N\OC)C(=O)NC [compound 286]	97%	27%	67%	15%
CNC(=O)/C(=N/OC)c1cccc(C)c1CO/N=C(\C)c1ccccc1C1CC1(F)F (stereo not drawn) [compound 288]	97%	20%	87%	30%
CNC(=O)/C(=N/OC)c1cccc(C)c1CO/N=C(\C)c1c(Cl)cccc1C(F)(F)F [compound 290]	83%	21%	92%	14%
CC/C(=N\OCc1c(C)cccc1/C(=N\OC)C(=O)NC)c1ccccc1 [compound 294]	2%	0%	1%	1%
CNC(=O)/C(=N/OC)c1cccc(C)c1CO/N=C(\COC)c1ccccc1 [compound 295]	11%	0%	2%	0%
CNC(=O)/C(=N/OC)c1cccc(C)c1CO/N=C(\C)c1ccccc1C1(C)CC1 [compound 296]	100%	83%	100%	40%
